Source: ChEMBL document CHEMBL5247647, “Phenothiazine-Based LSD1 Inhibitor Promotes T-Cell Killing Response of Gastric Cancer Cells” (J Med Chem, 2023)
Active and inactive are the calls of the source. The rule behind the calls is not given here.

Experiments:
MAO-B = biological target: T1, MAO-B (Homo sapiens, UniProt P27338); test: Inhibition of recombinant human MAO-B at 10 uM
T1 sequence (P27338 whole entry): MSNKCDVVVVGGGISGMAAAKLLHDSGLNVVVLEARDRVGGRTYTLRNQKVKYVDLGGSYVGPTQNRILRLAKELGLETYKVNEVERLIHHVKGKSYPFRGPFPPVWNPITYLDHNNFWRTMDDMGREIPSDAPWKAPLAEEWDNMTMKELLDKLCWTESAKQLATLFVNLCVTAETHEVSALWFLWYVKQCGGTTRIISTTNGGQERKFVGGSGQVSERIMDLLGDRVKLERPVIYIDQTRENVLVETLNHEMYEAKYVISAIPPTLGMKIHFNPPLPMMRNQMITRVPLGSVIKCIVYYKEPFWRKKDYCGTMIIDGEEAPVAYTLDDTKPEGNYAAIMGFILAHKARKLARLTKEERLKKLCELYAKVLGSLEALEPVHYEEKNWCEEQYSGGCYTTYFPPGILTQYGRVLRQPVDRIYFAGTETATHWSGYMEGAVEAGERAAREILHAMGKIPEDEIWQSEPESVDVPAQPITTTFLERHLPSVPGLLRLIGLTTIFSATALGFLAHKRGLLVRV

[1] = biological target: T2, Lysine-specific histone demethylase 1A (Homo sapiens, UniProt O60341); test: Inhibition of human LSD1 in human BGC-823 cells assessed as inhibition of H3K4me2 demethylation at 5 to 20 uM incubated for 5 days by Western blot anlaysis; format: cell-based; details: dose 5-20 µM, time 5.0 day
[2] = biological target: T2, Lysine-specific histone demethylase 1A; test: Inhibition of human LSD1 in human BGC-823 cells assessed as inhibition of H3K4me3 demethylation at 5 to 20 uM incubated for 5 days by Western blot anlaysis; format: cell-based; details: dose 5-20 µM, time 5.0 day
[3] = biological target: T2, Lysine-specific histone demethylase 1A; test: Inhibition of human LSD1 in human LSD1 knockout BGC-823 cells assessed as effect on H3K4me1 methylation at 5 to 20 uM incubated for 5 days by Western blot anlaysis; format: cell-based; details: dose 5-20 µM, time 5.0 day
[4] = biological target: T2, Lysine-specific histone demethylase 1A; test: Inhibition of human LSD1 in human LSD1 knockout BGC-823 cells assessed as effect on H3K4me2 methylation at 5 to 20 uM incubated for 5 days by Western blot anlaysis; format: cell-based; details: dose 5-20 µM, time 5.0 day
BGC-823 [5] = test: Downregulation of PD-L1 expression in human BGC-823 cells at 5 to 20 uM incubated for 5 days by Western blot anlaysis; format: functional, cell-based; details: dose 5-20 µM, time 5.0 day
BGC-823 [6] = test: Downregulation of PD-L1 expression in human BGC-823 cell membrane at 5 to 20 uM incubated for 5 days by Western blot anlaysis; format: functional, cell membranes; details: dose 5-20 µM, time 5.0 day
MFC [7] = test: Downregulation of PD-L1 expression in mouse MFC cell membrane at 5 to 20 uM incubated for 5 days by Western blot anlaysis; format: functional, cell membranes; details: dose 5-20 µM, time 5.0 day
BGC-823 [8] = test: Downregulation of PD-L1 expression in human LSD1 knockout BGC-823 cells at 5 to 20 uM incubated for 5 days by Western blot anlaysis; format: functional, cell-based; details: dose 5-20 µM, time 5.0 day
MFC [9] = test: Downregulation of PD-L1 expression in mouse LSD1 knockout MFC cells at 5 to 20 uM incubated for 5 days by Western blot anlaysis; format: functional, cell-based; details: dose 5-20 µM, time 5.0 day
BGC-823 [10] = test: Antiproliferative activity against human BGC-823 cells assessed as inhibition of cell proliferation incubated for 48 hrs by SRB assay; format: functional, cell-based
MFC [11] = test: Antiproliferative activity against mouse MFC cells assessed as inhibition of cell proliferation incubated for 48 hrs by SRB assay; format: functional, cell-based
BGC-823 [12] = test: Anticancer activity against human BGC-823 cells assessed as increase in CD3/CD28 activated T-cell killing response at 5 to 20 uM incubated for 5 days by DAPI staining based assay; format: functional; details: dose 5-20 µM, time 5.0 day
BGC-823 [13] = test: Anticancer activity against human LSD1 knockout BGC-823 cells assessed as increase in CD3/CD28 activated T-cell killing response at 5 to 20 uM incubated for 5 days by DAPI staining based assay; format: functional; details: dose 5-20 µM, time 5.0 day
BGC-823 [14] = test: Anticancer activity against human PD-L1 knockout BGC-823 cells assessed as increase in CD3/CD28 activated T-cell killing response at 5 to 20 uM incubated for 5 days by DAPI staining based assay; format: functional; details: dose 5-20 µM, time 5.0 day
MFC [15] = test: Antitumor activity against mouse MFC cells xenografted in 615 mouse assessed as decrease in tumor weight at 10 to 50 mg/kg, po for 14 days; format: functional, organism-based; details: dose 10-50 mg/kg, time 14.0 day
MFC [16] = test: Antitumor activity against mouse MFC cells xenografted in 615 mouse assessed as decrease in Ki67 expression in tumor at 10 to 50 mg/kg, po for 14 days by immunohistochemistry; format: functional, organism-based; details: dose 10-50 mg/kg, time 14.0 day
[17] = Toxicity against 615 mouse xenografted with mouse MFC cells in assessed as body weight change in tumor at 10 to 50 mg/kg, po for 14 days; format: organism-based; details: in vivo, 336 h, dose 10-50 mg/kg, time 14 day
[18] = Toxicity against 615 mouse xenografted with mouse MFC cells in assessed as pathological changes in spleen at 10 to 50 mg/kg, po for 14 days by Hematoxylin and Eosin staining based microscopic analysis; format: organism-based; details: in vivo, 336 h, dose 10-50 mg/kg, time 14 day
[19] = Toxicity against 615 mouse xenografted with mouse MFC cells in assessed as pathological changes in lungs at 10 to 50 mg/kg, po for 14 days by Hematoxylin and Eosin staining based microscopic analysis; format: organism-based; details: in vivo, 336 h, dose 10-50 mg/kg, time 14 day
MFC [20] = test: Antitumor activity against mouse MFC cells xenografted in 615 mouse assessed as increase in infiltration of CD3+ T cells into tumor at 10 to 50 mg/kg, po for 14 days by immunohistochemistry; format: functional, organism-based; details: dose 10-50 mg/kg, time 14.0 day
MFC [21] = test: Antitumor activity against mouse MFC cells xenografted in 615 mouse assessed as increase in infiltration of CD8+ T cells into tumor at 10 to 50 mg/kg, po for 14 days by immunohistochemistry; format: functional, organism-based; details: dose 10-50 mg/kg, time 14.0 day
MFC [22] = test: Antitumor activity against mouse MFC cells xenografted in 615 mouse assessed as increase in IL-2 expression level in tumor at 10 to 50 mg/kg, po for 14 days by ELISA; format: functional, organism-based; details: dose 10-50 mg/kg, time 14.0 day
MFC [23] = test: Antitumor activity against mouse MFC cells xenografted in 615 mouse assessed as increase in IL-2 mRNA expression level in tumor at 10 to 50 mg/kg, po for 14 days; format: functional, organism-based; details: dose 10-50 mg/kg, time 14.0 day
MFC [24] = test: Antitumor activity against mouse MFC cells xenografted in 615 mouse assessed as increase in IFNgamma mRNA expression level in tumor at 10 to 50 mg/kg, po for 14 days; format: functional, organism-based; details: dose 10-50 mg/kg, time 14.0 day

Which results are given for c1ccc2c(c1)Sc1ccccc1N2CCN1CCOCC1?
inhibition at 10 µM (MAO-B): < 10%; inhibition [1]: Active; inhibition [2]: inactive; inhibition [3]: inactive; inhibition [4]: inactive; Activity (BGC-823 [5]): Dose-Dependent Effect; Activity (BGC-823 [6]): Dose-Dependent Effect; Activity (MFC [7]): Dose-Dependent Effect; Activity (BGC-823 [8]): inactive; Activity (MFC [9]): inactive; Activity (BGC-823 [10]): inactive; Activity (MFC [11]): inactive; Activity (BGC-823 [12]): Dose-Dependent Effect; Activity (BGC-823 [13]): inactive; Activity (BGC-823 [14]): inactive; Activity (MFC [15]): Active; Activity (MFC [16]): Active; Activity [17]: Non-Toxic; Activity [18]: Non-Toxic; Activity [19]: Non-Toxic; Activity (MFC [20]): Active; Activity (MFC [21]): Active; Activity (MFC [22]): Active; Activity (MFC [23]): Active; Activity (MFC [24]): Active
